15 compounds from patent publication US10077261B2, “Imidazolin-5-one derivative useful as FASN inhibitors for the treatment of cancer” (Janssen Pharmaceutica NV, priority 2012, dated 2018) can be followed below.

Assay [1] deals with T1, hFASN enzyme (full length) (Homo sapiens, UniProt P49327).
T1 construct: 10 μL hFASN enzyme (full length, 300 ng, purified in house); made in house
Nature of the assay: Fatty Acid Synthase (FASN) inhibition scintillation proximity assay. It counts as biochemical. The conditions noted are these: for inhibition at 10 µM: read-out: Human FASN % inhibition @ 10 μM, 10 μM test compound; for IC50: read-out: Human FASN pIC50 (converted). In a few lines: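 Read-out relies on hydrophobic ³H-palmitate product, formed from ³H-acetyl-CoA and malonyl-CoA, binding streptavidin imaging beads, measured at 610±20 nm after at least 24 h. Full-length enzyme (300 ng) in phosphate buffer pH 7.5 with DTT; eight compound concentrations, 0.01–30 μM.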
In general terms: Scintillation proximity formats need no separation of bound from free tracer.

Assay [2] relates to LNCaP-Vancouver prostate cells. Briefly: In vitro LNCaP Vancouver prostate cell proliferation assay in lipid reduced medium. The conditions noted are these: read-out: pIC50 LNCaP_Vancouver prostate cell (converted). In kind it is cell-based.
Assay [3] has as its system A2780 ovarian cells. Nature of the assay: A2780 ovarian cell proliferation assay in lipid reduced medium, without palmitate (MTT). In kind it is cell-based. The conditions noted are these: Homo sapiens, A2780, 96 h; read-out: pIC50 A2780 Ovarian Cell, Without Palmitate (converted).
Assay [4] addresses Fatty Acid Synthase Keto-reductase Domain (FASN KR) (Homo sapiens, UniProt P49327). Nature of the assay: Fatty Acid Synthase keto-reductase domain (FASN KR) inhibition, NADPH oxidation at 340 nm.
Procedure: After 20 minutes incubation at room temperature the plate was measured again (T2).
The decrease in absorbance was calculated as (Absorbance before incubation T1)−(Absorbance following incubation T2).
A plot of Controlmin versus test compound concentration was fitted to a 4-parameter logistic curve using a non-linear least squares regression method.
Assay [5] has as its system A2780 ovarian cells. Nature of the assay: A2780 ovarian cell proliferation assay in lipid reduced medium, with palmitate (MTT). It counts as cell-based. The conditions noted are these: Homo sapiens, A2780, 96 h; read-out: pIC50 A2780 Ovarian Cell, With Palmitate (converted). In a few lines: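 In this palmitate-supplemented format, compound dilutions (30 μM down to 0.01 μM) are added to cells in lipid-reduced serum with 25 μM palmitate, 0.2% fatty-acid-free BSA and 0.25% ethanol. After four days (96 h) MTT absorbance at 544 nm is recorded and fitted by minimum sum of squares.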

Assay [6] concerns PC-3M-Luc-C6 prostate cells. Briefly: In vitro PC-3M-Luc-C6 prostate cell proliferation assay in lipid reduced medium. In kind it is cell-based. The conditions noted are these: 96 h, read-out: pIC50 PC-3M-Luc-C6 prostate cell (converted).

Fatty Acid Synthase Keto-reductase Domain (FASN KR), sequence (P49327 whole entry, the tested form may be a part): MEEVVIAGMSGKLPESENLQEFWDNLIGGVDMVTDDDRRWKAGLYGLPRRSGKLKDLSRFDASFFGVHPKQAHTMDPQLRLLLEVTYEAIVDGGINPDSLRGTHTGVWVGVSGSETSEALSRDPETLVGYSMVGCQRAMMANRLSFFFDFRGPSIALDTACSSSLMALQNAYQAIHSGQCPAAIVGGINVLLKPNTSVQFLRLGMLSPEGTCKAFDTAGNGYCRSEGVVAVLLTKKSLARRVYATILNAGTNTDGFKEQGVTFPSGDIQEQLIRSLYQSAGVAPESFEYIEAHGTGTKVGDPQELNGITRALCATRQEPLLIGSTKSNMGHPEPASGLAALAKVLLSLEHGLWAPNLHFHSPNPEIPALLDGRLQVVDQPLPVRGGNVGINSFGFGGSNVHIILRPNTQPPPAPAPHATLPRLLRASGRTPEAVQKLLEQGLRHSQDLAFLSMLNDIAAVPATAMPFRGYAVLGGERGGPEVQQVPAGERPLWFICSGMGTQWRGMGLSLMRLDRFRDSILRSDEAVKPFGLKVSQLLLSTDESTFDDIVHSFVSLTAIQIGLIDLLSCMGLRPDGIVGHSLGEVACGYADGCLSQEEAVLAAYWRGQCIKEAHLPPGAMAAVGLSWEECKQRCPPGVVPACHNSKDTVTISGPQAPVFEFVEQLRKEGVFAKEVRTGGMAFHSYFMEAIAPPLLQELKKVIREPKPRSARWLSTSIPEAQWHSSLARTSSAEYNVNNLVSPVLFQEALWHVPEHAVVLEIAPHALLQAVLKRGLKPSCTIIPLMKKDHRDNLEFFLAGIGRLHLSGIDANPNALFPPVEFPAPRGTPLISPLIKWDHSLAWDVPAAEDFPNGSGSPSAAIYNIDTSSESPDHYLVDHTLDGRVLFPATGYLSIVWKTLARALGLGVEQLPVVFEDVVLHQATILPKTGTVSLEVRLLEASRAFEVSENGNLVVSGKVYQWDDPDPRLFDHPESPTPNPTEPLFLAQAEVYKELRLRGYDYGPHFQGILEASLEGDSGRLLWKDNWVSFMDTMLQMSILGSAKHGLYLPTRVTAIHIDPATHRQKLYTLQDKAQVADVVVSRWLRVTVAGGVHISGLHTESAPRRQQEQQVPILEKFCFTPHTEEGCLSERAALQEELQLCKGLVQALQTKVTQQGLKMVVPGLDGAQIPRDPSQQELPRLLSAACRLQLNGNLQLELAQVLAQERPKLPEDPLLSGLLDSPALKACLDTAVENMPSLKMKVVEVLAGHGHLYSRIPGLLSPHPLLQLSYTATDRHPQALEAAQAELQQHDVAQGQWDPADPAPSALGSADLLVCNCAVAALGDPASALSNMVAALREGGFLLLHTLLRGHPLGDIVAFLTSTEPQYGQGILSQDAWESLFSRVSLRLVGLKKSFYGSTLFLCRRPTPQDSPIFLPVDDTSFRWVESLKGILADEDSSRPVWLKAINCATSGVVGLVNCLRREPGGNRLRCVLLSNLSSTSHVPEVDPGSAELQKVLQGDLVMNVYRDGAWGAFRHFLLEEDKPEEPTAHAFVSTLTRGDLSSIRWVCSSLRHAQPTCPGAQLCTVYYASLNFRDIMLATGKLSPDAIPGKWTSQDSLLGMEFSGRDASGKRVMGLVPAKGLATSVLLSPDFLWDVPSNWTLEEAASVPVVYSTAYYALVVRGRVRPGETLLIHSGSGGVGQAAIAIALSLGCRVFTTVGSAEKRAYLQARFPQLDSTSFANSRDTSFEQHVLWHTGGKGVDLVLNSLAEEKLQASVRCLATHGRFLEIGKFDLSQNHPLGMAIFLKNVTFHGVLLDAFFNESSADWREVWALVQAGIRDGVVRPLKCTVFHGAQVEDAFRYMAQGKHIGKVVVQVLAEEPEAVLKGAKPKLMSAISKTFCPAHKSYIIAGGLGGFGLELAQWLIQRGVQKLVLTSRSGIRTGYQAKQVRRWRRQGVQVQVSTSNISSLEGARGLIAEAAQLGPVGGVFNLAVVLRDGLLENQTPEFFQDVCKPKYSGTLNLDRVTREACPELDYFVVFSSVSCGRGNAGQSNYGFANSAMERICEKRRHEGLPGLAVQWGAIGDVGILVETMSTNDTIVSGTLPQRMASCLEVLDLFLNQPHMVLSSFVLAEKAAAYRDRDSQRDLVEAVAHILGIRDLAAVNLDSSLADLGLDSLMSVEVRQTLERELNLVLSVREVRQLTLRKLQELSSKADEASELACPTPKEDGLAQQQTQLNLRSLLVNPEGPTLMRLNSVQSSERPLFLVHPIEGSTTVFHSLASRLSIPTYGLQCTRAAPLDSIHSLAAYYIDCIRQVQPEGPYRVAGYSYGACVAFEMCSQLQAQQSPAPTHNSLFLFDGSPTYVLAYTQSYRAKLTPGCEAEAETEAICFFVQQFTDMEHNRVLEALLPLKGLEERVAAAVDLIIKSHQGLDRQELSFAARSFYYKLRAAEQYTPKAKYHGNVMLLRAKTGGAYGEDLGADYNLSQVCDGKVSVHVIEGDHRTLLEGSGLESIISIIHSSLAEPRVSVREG
T1 sequence (P49327 whole entry): as the sequence (P49327 whole entry, the tested form may be a part) above

For orientation: inhibition means the drop in the measured response relative to a control, in per cent. In the case of `O=C(C1CC1)N1CC(CN2C(=O)C3(CC3)N=C2c2ccc(-c3ccc(-c4cnn(C5CC5)c4)cc3)cc2F)C1` [compound 328, 6-((1-(cyclopropanecarbonyl)azetidin-3-yl)methyl)-5-(4′-(1-cyclopropyl-1H-pyrazol-4-yl)-3-fluoro-[1,1′-biphenyl]-4-yl)-4,6-diazaspiro[2.4]hept-4-en-7-one], the inhibition at 10 µM in assay [1] was 98%. The IC50 in assay [1] was 31.6 nM; in assay [2], 53.7 nM; in the assay with A2780 ovarian cells [3], 5.13 nM; in assay [4] it was 79.4 nM; in the assay with A2780 ovarian cells [5], 10000 nM; in assay [6], 16.2 nM.
Take `CC(C)n1cc(-c2ccc(-c3ccc(C4=NC5(CC5)C(=O)N4CC4CN(C(=O)C5CC5)C4)cc3)cc2)cn1` [compound 331]: in assay [1], the inhibition at 10 µM worked out at 100%. Also, the IC50 in assay [1] is 66.1 nM; in assay [2], 617 nM; with A2780 ovarian cells [3], 69.2 nM; in assay [4] it was 245 nM; in the assay with A2780 ovarian cells [5], 5620 nM; in assay [6], 148 nM.
In the case of `COc1ccc2cc(-c3ccc(C4=NC5(CC5)C(=O)N4CC4CN(C(=O)C5(C)CC5)C4)c(C)c3)ccc2c1` [compound 332, 5-(4-(6-methoxynaphthalen-2-yl)-2-methylphenyl)-6-((1-(1-methylcyclopropanecarbonyl)azetidin-3-yl)methyl)-4,6-diazaspiro[2.4]hept-4-en-7-one], the inhibition at 10 µM in assay [1] was found to be 100%. Besides, the IC50 in assay [1] is 18.6 nM; in assay [2], 107 nM; in the assay with A2780 ovarian cells [3], 12.3 nM; in assay [4], 60.3 nM; with A2780 ovarian cells [5] it was 4170 nM; in assay [6] it was 12.3 nM.
For `Cc1cc(-c2ccc(-c3cnn(C)c3)cc2)ccc1C1=NC2(CC2)C(=O)N1CC1CN(C(=O)C2CC2)C1` [compound 333, 6-((1-(cyclopropanecarbonyl)azetidin-3-yl)methyl)-5-(3-methyl-4′-(1-methyl-1H-pyrazol-4-yl)-[1,1′-biphenyl]-4-yl)-4,6-diazaspiro[2.4]hept-4-en-7-one], in assay [1], the inhibition at 10 µM amounted to 98%. The IC50 in assay [1] is 55 nM; in assay [2] it was 537 nM; in the assay with A2780 ovarian cells [3], around 33.1 nM; in assay [4], 178 nM; in the assay with A2780 ovarian cells [5], above 10000 nM; in assay [6] it was around 339 nM.
As for `Cc1ccc2cc(-c3ccc(C4=NC5(CC5)C(=O)N4CC4CN(C(=O)C5(C)CC5)C4)c(C)c3)ccc2c1` [compound 334, 5-(2-methyl-4-(6-methylnaphthalen-2-yl)phenyl)-6-((1-(1-methylcyclopropanecarbonyl)azetidin-3-yl)methyl)-4,6-diazaspiro[2.4]hept-4-en-7-one], the inhibition at 10 µM in assay [1] came out at 97%. Also, the IC50 is 21.9 nM in assay [1]; 162 nM in assay [2]; 24 nM in the assay on A2780 ovarian cells [3]; 43.7 nM in assay [4]; 6920 nM with A2780 ovarian cells [5]; 37.2 nM in assay [6].
In the case of `Cc1cc(-c2ccc3cnn(C)c3c2)ccc1C1=NC2(CC2)C(=O)N1CC1CN(C(=O)C2(C)CC2)C1` [compound 335, 5-(2-methyl-4-(1-methyl-1H-indazol-6-yl)phenyl)-6-((1-(1-methylcyclopropanecarbonyl)azetidin-3-yl)methyl)-4,6-diazaspiro[2.4]hept-4-en-7-one], in assay [1], the inhibition at 10 µM amounted to 105%. Also, the IC50 in assay [1] is 64.6 nM; in assay [2] it was 603 nM; in the assay on A2780 ovarian cells [3], 138 nM; in assay [4] it was 166 nM; with A2780 ovarian cells [5], above 10000 nM; in assay [6], around 115 nM.
As for `Cc1cc(-c2ccc(-c3cnn(C4CC4)c3)cc2)ccc1C1=NC2(CC2)C(=O)N1CC1CN(C(=O)C2(C)CC2)C1` [compound 337, 5-(4′-(1-cyclopropyl-1H-pyrazol-4-yl)-3-methyl-[1,1′-biphenyl]-4-yl)-6-((1-(1-methylcyclopropanecarbonyl)azetidin-3-yl)methyl)-4,6-diazaspiro[2.4]hept-4-en-7-one], the inhibition at 10 µM in assay [1] stood at 105%. The IC50 in assay [1] was 36.3 nM; in assay [2], 79.4 nM; in the assay on A2780 ovarian cells [3] it was 38 nM; in assay [4], 79.4 nM; with A2780 ovarian cells [5] it was 6920 nM; in assay [6] it was 20.4 nM.
Turning to `Cc1cc(-c2ccc(-c3cnn(C4CCC4)c3)cc2)ccc1C1=NC2(CC2)C(=O)N1CC1CN(C(=O)C2(C)CC2)C1` [compound 338, 5-(4′-(1-cyclobutyl-1H-pyrazol-4-yl)-3-methyl-[1,1′-biphenyl]-4-yl)-6-((1-(1-methylcyclopropanecarbonyl)azetidin-3-yl)methyl)-4,6-diazaspiro[2.4]hept-4-en-7-one], the inhibition at 10 µM in assay [1] turned out to be 106%. In addition, the IC50 in assay [1] was 43.7 nM; in assay [2], 126 nM; in the assay with A2780 ovarian cells [3], 21.9 nM; in assay [4] it was 148 nM; with A2780 ovarian cells [5] it was around 4270 nM; in assay [6], 19.1 nM.
In the case of `O=C(C1CC1)N1CC(CN2C(=O)C3(CC3)N=C2c2ccc(-c3ccc4cc(Cl)cnc4c3)cc2)C1` [compound 339, 5-(4-(3-chloroquinolin-7-yl)phenyl)-6-((1-(cyclopropanecarbonyl)azetidin-3-yl)methyl)-4,6-diazaspiro[2.4]hept-4-en-7-one], in assay [1], the inhibition at 10 µM is 95%. The IC50 was 30.9 nM in assay [1]; 324 nM in assay [2]; 28.8 nM in the assay with A2780 ovarian cells [3]; 47.9 nM in assay [4]; around 2820 nM with A2780 ovarian cells [5]; 31.6 nM in assay [6].
For `Cc1cc(-c2ccc3cc(Cl)cnc3c2)ccc1C1=NC2(CC2)C(=O)N1CC1CN(C(=O)C2(C)CC2)C1` [compound 340, 5-(4-(3-chloroquinolin-7-yl)-2-methylphenyl)-6-((1-(1-methylcyclopropanecarbonyl)azetidin-3-yl)methyl)-4,6-diazaspiro[2.4]hept-4-en-7-one], in assay [1], the inhibition at 10 µM was 101%. The IC50 in assay [1] is 28.8 nM; in assay [2], 93.3 nM; with A2780 ovarian cells [3], 15.5 nM; in assay [4] it was 38 nM; with A2780 ovarian cells [5] it was 6030 nM; in assay [6], 18.2 nM.
Regarding `O=C(C1CC1)N1CC[C@@H](CN2C(=O)C3(CC3)N=C2c2ccc(-c3ccc4[nH]ccc4c3)cn2)C1` [compound 341, (R)-5-(5-(1H-indol-5-yl)pyridin-2-yl)-6-((1-(cyclopropanecarbonyl)pyrrolidin-3-yl)methyl)-4,6-diazaspiro[2.4]hept-4-en-7-one], the inhibition at 10 µM in assay [1] was 102%. The IC50 in assay [1] is 64.6 nM; in assay [2] it was 525 nM; in the assay on A2780 ovarian cells [3], 132 nM; in assay [4], 209 nM; in the assay on A2780 ovarian cells [5] it was above 6170 nM; in assay [6], 126 nM.
Take `O=C(C1CC1)N1CC[C@@H](CN2C(=O)C3(CC3)N=C2c2ccc(-c3ccc4sccc4c3)cn2)C1` [compound 342, (R)-5-(5-(benzo[b]thiophen-5-yl)pyridin-2-yl)-6-((1-(cyclopropanecarbonyl)pyrrolidin-3-yl)methyl)-4,6-diazaspiro[2.4]hept-4-en-7-one]: the inhibition at 10 µM in assay [1] was 106%. Further, the IC50 is 69.2 nM in assay [1]; 1620 nM in assay [2]; 1860 nM in the assay on A2780 ovarian cells [3]; 195 nM in assay [4]; above 10000 nM with A2780 ovarian cells [5]; around 891 nM in assay [6].
On to `O=C(C1CC1)N1CC(CN2C(=O)C3(CC3)N=C2c2ccc(-c3ccc4cccnc4c3)cc2F)C1` [compound 346, 6-((1-(cyclopropanecarbonyl)azetidin-3-yl)methyl)-5-(2-fluoro-4-(quinolin-7-yl)phenyl)-4,6-diazaqspiro[2.4]hept-4-en-7-one], for which the inhibition at 10 µM in assay [1] is 97%. For the same compound, the IC50 in assay [1] is 49 nM; in assay [2] it was 43.7 nM; in the assay with A2780 ovarian cells [3] it was around 17 nM; in assay [4] it was 53.7 nM; in the assay with A2780 ovarian cells [5], above 10000 nM; in assay [6], 22.4 nM.
On to `Cn1cnc2cc(-c3ccc(C4=NC5(CC5)C(=O)N4CC4CN(C(=O)C5CC5)C4)c(F)c3)ccc21` [compound 348, 6-((1-(cyclopropanecarbonyl)azetidin-3-yl)methyl)-5-(2-fluoro-4-(1-methyl-1H-benzo[d]imidazol-5-yl)phenyl)-4,6-diazaspiro[2.4]hept-4-en-7-one], for which the inhibition at 10 µM in assay [1] is 96%. In addition, the IC50 in assay [1] was 63.1 nM; in assay [2] it was 282 nM; in the assay on A2780 ovarian cells [3], 28.8 nM; in assay [4], 87.1 nM; in the assay on A2780 ovarian cells [5] it was above 10000 nM; in assay [6], 40.7 nM.
Take `O=C(C1CC1)N1CC(CN2C(=O)C3(CC3)N=C2c2ccc(-c3ccc4cc(F)ccc4c3)cc2F)C1` [compound 349, 6-((1-(cyclopropanecarbonyl)azetidin-3-yl)methyl)-5-(2-fluoro-4-(6-fluoronaphthalen-2-yl)phenyl)-4,6-diazaspiro[2.4]hept-4-en-7-one]: in assay [1], the inhibition at 10 µM was determined as 102%. The IC50 in assay [1] was 16.6 nM; in assay [2], 138 nM; with A2780 ovarian cells [3], around 30.9 nM; in assay [4], 58.9 nM; in the assay with A2780 ovarian cells [5] it was above 10000 nM; in assay [6] it was 33.9 nM.
